Here are results for one compound from US10603345B2, “Pharmaceutical composition for treating respiratory disease” (Kunming Institute of Botany, The Chinese Academy of Sciences, priority 2015, dated 2020).

Holding throughout (type): in vivo
Assay [1] relates to IgE in serum of asthma model mouse. The assay is described as follows: Effect on IgE in serum of asthma model mouse. The conditions noted are these: ELISA, ig 7 d, dose/kg: dexamethasone 2.0 mg, Test group 1 50, 2 25, picrinine 5.0, vallesamine 3.0, scholaricine 3.0, 19-epi-scholaricine 3.5 mg, x ± SD. The procedure:
(§1) Animal source: 25˜30 g male ICR mouse, from laboratory animal department of Kunming Medical University, License No. SCXK (Dian) 2011-0004.
(§2) Method and route: ovalbumin (OVA) was used to induce mouse asthma model, and after intragastrical administration for 7 d at a dose of 20 mL/kg, the animal was sacrificed at the eighth day.
(§3) Test group 1: picrinine, vallesamine, scholaricine and 19-epischolaricine prepared in Example 1.7 were homogeneously mixed at different ratios by weight (50 mg/kg), Test group 2: the alkaloid composition prepared in Example 1.4 (25 mg/kg). […]
(§4) Sample preparation: all the samples were prepared by using 0.5% carboxymethylcellulose sodium (0.5% CMC-Na).
Group and dose: In Test group 1, the ratio of picrinine, vallesamine, scholaricine and 19-epischolaricine by weight was 30:33:27:6, and the other groups and doses thereof were as described in Example 11.
Test index: immunoglobulin IgE in serum was used as index, and was determined by enzyme linked immunosorbent assay.
For orientation: ELISA stands for enzyme-linked immunosorbent assay.

For assay [2], the system named is WBC count and eosinophil percentage in BALF of asthma model mouse. The experiment in a line: Effect on WBC count and eosinophil percentage in BALF of asthma model mouse. Particulars: OVA-induced asthma mouse, ig 7 d, dose/kg: dexamethasone 2 mg, Test group 1 50, 2 25, picrinine 5.0, vallesamine 3.0, scholaricine 3.0, 19-epi-scholaricine 3.5 mg, x ± SD. As to the method: as §1, §2, §3, §4
Group and dose: in Test group 1, the ratio of picrinine, vallesamine, scholaricine and 19-epischolaricine by weight was 41:45:28:7, and the other groups and doses thereof were as described in Example 11.
Test index: number of white blood cells (WBCs) and number of eosinophil in bronchoalveolar lavage fluid (BALF) were used as index, and were determined by full-automatic hemocytometer.

For assay [3], the system named is SOD in serum and BALF of asthma model mouse. The experiment in a line: Effect on SOD in serum and BALF of asthma model mouse. Particulars: ig 7 d, dose/kg: dexamethasone 2.0 mg, Test group 1 50, 2 25, picrinine 5.0, vallesamine 3.0, scholaricine 3.0, 19-epi-scholaricine 3.5 mg, x ± SD. As to the method:
as §1, §2, §3, §4
Group and dose: in Test group 1, the ratio of picrinine, vallesamine, scholaricine and 19-epischolaricine by weight was 12:10:9:2, and the other groups and doses thereof were as described in Example 11.
Test index: SOD in serum and BALF was used as index, and was determined by xanthine oxidase method.

The subject of assay [4] is SOD in serum and homogenate of COPD model mouse. The assay is described as follows: Effect on SOD in serum and homogenate of COPD model mouse. Particulars: ig 7 d, dose/kg: dexamethasone 1 mg, Test group 1 50, 2 25, 3 10, picrinine 10, vallesamine 6, scholaricine 7, 19-epi-scholaricine 2 mg, x ± SD. The procedure: as §1
(§5) Method and route: lipopolysaccharide (LPS) plus smoke exposure was used for 30 days to induce mouse chronic obstructive pulmonary disease model; and after intragastrical administration for 7 d at a dose of 20 mL/kg, the animal was sacrificed at the eighth day.
(§6) Picrinine group (10 mg/kg), Vallesamine group (6.0 mg/kg), Scholaricine group (7.0 mg/kg), 19-epischolaricine group (2.0 mg/kg).
as §4
Group and dose: in Test group 1, the ratio of picrinine, vallesamine, scholaricine and 19-epischolaricine by weight was 16:11:12:3, and the other groups and doses thereof were as described in Example 10.
Test index: SOD in serum and lung homogenate was used as index, and was determined by xanthine oxidase method.

Assay [5] relates to white blood cell count and classification in BALF of COPD model mouse. The experiment in a line: Effect on white blood cell count and classification in BALF of COPD model mouse. Particulars: COPD mouse (LPS plus smoke exposure 30 days), ig 7 d, dose/kg: dexamethasone 1 mg, Test group 1 50, 2 25, 3 10, picrinine 10, vallesamine 6, scholaricine 7, 19-epi-scholaricine 2 mg, x ± SD. As to the method: as §1, §5, §6, §4
Group and dose: in Test group 1, the ratio of picrinine, vallesamine, scholaricine and 19-epischolaricine by weight was 48:40:29:10, and the other groups and doses thereof were as described in Example 10.
Test index: total number of white blood cells and inflammatory cell classification in bronchoalveolar lavage fluid (BALF) were used as indexes, and were determined by full-automatic hemocytometer.

The test system of assay [6] is MDA in serum and homogenate of COPD model mouse. The assay is described as follows: Effect on MDA in serum and homogenate of COPD model mouse. Particulars: ig 7 d, dose/kg: dexamethasone 1 mg, Test group 1 50, 2 25, 3 10, picrinine 10, vallesamine 6, scholaricine 7, 19-epi-scholaricine 2 mg, x ± SD. As to the method: as §1, §5, §6, §4
Group and dose: in Test group 1, the ratio of picrinine, vallesamine, scholaricine and 19-epischolaricine by weight was 9:6:5:1, and the other groups and doses thereof were as described in Example 10.
Test index: MDA in serum and homogenate was used as index, and was determined by thibabituric acid method.

For assay [7], the system named is IL-6 in serum of COPD model mouse. The assay is described as follows: Effect on IL-6 in serum of COPD model mouse. Particulars: ELISA, ig 7 d, dose/kg: dexamethasone 1 mg, Test group 1 50, 2 25, 3 10, picrinine 10, vallesamine 6, scholaricine 7, 19-epi-scholaricine 2 mg, x ± SD. As to the method:
as §1, §5, §6, §4
Group and dose: in Test group 1, the ratio of picrinine, vallesamine, scholaricine and 19-epischolaricine by weight was 38:30:27:7, and the other groups and doses thereof were as described in Example 10.
Test index: IL-6 in serum was used as index, and was determined by enzyme linked immunosorbent assay.

The subject of assay [8] is Eotaxin in serum of asthma model mouse. The assay is described as follows: Effect on Eotaxin in serum of asthma model mouse. Particulars: ELISA, ig 7 d, dose/kg: dexamethasone 2.0 mg, Test group 1 50, 2 25, picrinine 5.0, vallesamine 3.0, scholaricine 3.0, 19-epi-scholaricine 3.5 mg, x ± SD. As to the method: as §1, §2, §3, §4
Group and dose: in Test group 1, the ratio of picrinine, vallesamine, scholaricine and 19-epischolaricine by weight was 37:42:30:8, and the other groups and doses thereof were as described in Example 11.
Test index: eosinophil chemotactic factor (Eotaxin) in serum was used as index, and was determined by enzyme linked immunosorbent assay.

Assay [9] deals with IL-4 in BALF of asthma model mouse. The assay is described as follows: Effect on IL-4 in BALF of asthma model mouse. Particulars: ELISA, ig 7 d, dose/kg: dexamethasone 2.0 mg, Test group 1 50, 2 25, picrinine 5.0, vallesamine 3.0, scholaricine 3.0, 19-epi-scholaricine 3.5 mg, x ± SD. As to the method: as §1, §2, §3, §4
Group and dose: in Test group 1, the ratio of picrinine, vallesamine, scholaricine and 19-epischolaricine by weight was 25:18:15:3, and the other groups and doses thereof were as described in Example 11. […]

Assay [10] deals with CRP in serum in COPD model mouse. The assay is described as follows: Effect on CRP in serum in COPD model mouse. The conditions noted are these: ELISA, ig 7 d, dose/kg: dexamethasone 1 mg, Test group 1 50, 2 25, 3 10, picrinine 10, vallesamine 6, scholaricine 7, 19-epi-scholaricine 2 mg, x ± SD. As to the method:
as §1, §5, §6, §4
Group and dose: in Test group 1, the ratio of picrinine, vallesamine, scholaricine and 19-epischolaricine by weight was 25:19:20:4, and the other groups and doses thereof were as described in Example 10.
Test index: CRP in serum was used as index, and was determined by enzyme linked immunosorbent assay.

Assay [11] has as its system MDA in serum and BALF of asthma model mouse. The experiment in a line: Effect on MDA in serum and BALF of asthma model mouse. Particulars: ig 7 d, dose/kg: dexamethasone 2.0 mg, Test group 1 50, 2 25, picrinine 5.0, vallesamine 3.0, scholaricine 3.0, 19-epi-scholaricine 3.5 mg, x ± SD. As to the method:
as §1, §2, §3, §4
Group and dose: in Test group 1, the ratio of picrinine, vallesamine, scholaricine and 19-epischolaricine by weight was 8:6:5:1, and the other groups and doses thereof were as described in Example 11.
Test index: MDA in serum and BALF was used as index, and was determined by thiobarbituric acid method.

For assay [12], the system named is IL-10 in BALF of asthma model mouse. The assay is described as follows: Effect on IL-10 in BALF of asthma model mouse. Particulars: ELISA, ig 7 d, dose/kg: dexamethasone 2.0 mg, Test group 1 50, 2 25, picrinine 5.0, vallesamine 3.0, scholaricine 3.0, 19-epi-scholaricine 3.5 mg, x ± SD. The procedure:
as §1, §2, §3, §4
Group and dose: in Test group 1, the ratio of picrinine, vallesamine, scholaricine and 19-epischolaricine by weight was 18:13:14:3, and the other groups and doses thereof were as described in Example 11.
Test index: IL-10 in BALF was used as index, and was determined by enzyme linked immunosorbent assay.

For the compound `C[C@@H]1C[C@H]2[C@@H]3CCC4=CC(=O)C=C[C@]4(C)[C@@]3(F)[C@@H](O)C[C@]2(C)[C@@]1(O)C(=O)CO` [dexamethasone, reference compound], the IgE in assay [1] was 3.23 ± 0.53 g μg/mL. Moreover, the Eosinophil percentage in [2] is listed as 4.32 ± 1.12 %. The “Number of WBCs” value in [2] is reported as 0.50 ± 0.17 ×10^9/L. Also, the SOD lavage fluid in [3] (BALF) was found to be 76.57 ± 12.52 U/mL. Besides, the SOD Serum in [3] (serum) is listed as 74.83 ± 8.43 U/mL; in assay [4] (serum), 86.85 ± 9.48 U/mL. In assay [4] (lung homogenate), this compound had an SOD homogenate of 63.92 ± 5.84 U/mL. In addition, the Leukocyte number in assay [5] was 1.1 ± 0.5 ×10^5/mL. In assay [5], the Neutrophil number is 0.53 ± 0.50 ×10^5/mL. Moreover, the “MDA Homogenate” value in [6] (lung homogenate) amounted to 6.23 ± 0.60 nmol/mL. Also, the “MDA Serum” value in [6] (serum) is reported as 14.04 ± 3.64 nmol/mL; in assay [11] (serum), 10.99 ± 2.38 nmol/mL. The same compound returned an IL-6 in assay [7] of 22.0 ± 2.0 pg/mL. This compound registered an Eotaxin in assay [8] of 7.87 ± 0.45 pg/mL. In assay [9], this compound yielded an IL-4 of 9.96 ± 4.03 pg/mL. Also, the CRP in [10] is listed as 22.3 ± 2.0 pg/mL. Further, in [11] (BALF), the MDA lavage fluid is on record as 2.17 ± .17 nmol/mL. In addition, in assay [12], the IL-10 is reported as 17.45 ± 5.60 pg/mL.
